Earlier results on two compounds are cited in patent US20240164409A1, “A METHOD OF REDUCING METHANE PRODUCTION IN A RUMINANT ANIMAL” (DIT AgTech Limited, priority 2021, published 2024).

Converted amounts (≈) assume the structure as drawn.

The conditions of this data set: for Characterised as: water solubility in words.

Regarding `BrC(Br)Br` [Bromoform], the Solubility in water was 3.2 mg/mL (≈ 12.7 mM) and the Characterised as result is “Sparingly soluble”.

With `O=[N+]([O-])OCCCO` [3-nitrooxypropanol], the Characterised as result is “Soluble”.
